Data on six compounds can be found in USRE39300E1, “Inhibiting the development of tolerance to and/or dependence on an addictive substance” (Virginia Commonwealth University Medical College of Virginia, priority 1993, dated 2006).

Data set [1] deals with rats. Put plainly: Health observations (death, grooming, weight loss) during the morphine tolerance experiment. The following applies: for overall toxicity: conclusion of Example 4; for rats that died due to drug administration: GM1 or dextrorphan treatment groups; for grooming and weight: ganglioside GM1 or dextrorphan treatment groups.
Data set [2] has as its system Sprague-Dawley rats. Kind of data set: Development of morphine tolerance with systemic treatment, tail-flick test. The following applies: for inhibition of the development of morphine tolerance: FIG. 6. Type of data set: in vivo, rat. In general terms: In hot-plate and tail-flick tests a longer latency is read as antinociception.
Data set [3] has as its system rats. Put plainly: Development of morphine tolerance with intrathecal treatment, tail-flick test. Type of data set: in vivo, rat. The conditions noted are these: for analgesic effect of morphine (tail-flick latency) on day 8: 100 or 50 nmol intrathecal immediately before each morphine 10 μg; for dose relation of the prevention of morphine tolerance: intrathecal; for prevention of the development of morphine tolerance: intrathecal administration immediately before each once daily intrathecal morphine sulfate 10 μg, FIGS. 7-10. The procedure:
Morphine sulfate 10 μg was delivered once daily through an intrathecal (spinal) canula implanted 5 days before the first morphine injection. Ganglioside GM1 or saline also was delivered intrathecally 30 minutes before each morphine injection.
Intrathecal ganglioside GM1 was given 30 min before each morphine administration. […] Vertical bars are standard errors. Maximal possible effects (MPE) were calculated by the formula % MPE=[(TL−BL)/(10−BL)]×100. TL: actual tail-flick latency; BL: baseline latency obtained before the first morphine injection; 10: cut-off time for radiant heat stimulation.
Calmodulin is an intracellular colactor necessary for the nitric oxide pathway that can be initiated upon NMDA receptor activation. […] Each data point in FIGS. 7-10 represents the mean of a group of rats (n=6) and standard errors are shown by vertical lines. The asterisks refer to statistical differences (α=0.05) between the saline group and each other group.

Data set [4] relates to Sprague-Dawley rats. Kind of data set: Naloxone-produced jumping (withdrawal symptom) in morphine-treated rats. It is filed as in vivo, rat.

Turning to `C[C@]12N[C@H](Cc3ccccc31)c1ccccc12` [MK 801, 5-methyl-10,11-dihydro-SH-dibenzo[a,d]cyclohepten-5,10-imine], in the data set on rats [1] (0.3 mg/kg, 3 out of 6), the “rats that died before the completion of the experiment” value is given as 50%. For the same compound, the “grooming and weight of the remaining rats” value in the data set with rats [1] (MK 801 0.3 mg/kg) was “apparently poor grooming and weight loss”. Further, the overall toxicity result in the data set with rats [1] is “severe cytotoxic effects”. Besides, the “inhibition of the development of morphine tolerance” value in the data set with Sprague-Dawley rats [2] (MK 801 0.3 mg/kg) is “inhibited the development of morphine tolerance”.

For the compound `CN1CCN(CCCN2c3ccccc3Sc3ccc(C(F)(F)F)cc32)CC1` [TFP, trifluoperazine], in the data set with rats [3], the “analgesic effect of morphine (tail-flick latency) on day 8” value is reported as “showed a reliable analgesic effect of morphine”, the “dose relation of the prevention of morphine tolerance” value is reported as 100=50 nmol>25=12.5 nmol and the “prevention of the development of morphine tolerance” value was “effectively prevent the development of morphine tolerance”.

With `Cl.NCCCCCCNS(=O)(=O)c1cccc2c(Cl)cccc12` [W-7, N-(6-aminohexyl)-5-chloro-1-naphthalenesulfonamide hydrochloride], in the data set with rats [3], the “analgesic effect of morphine (tail-flick latency) on day 8” value is on record as “showed a reliable analgesic effect of morphine”, the “dose relation of the prevention of morphine tolerance” value was 100=50 nmol>25=12.5 nmol and the “prevention of the development of morphine tolerance” value is listed as “effectively prevent the development of morphine tolerance”.

`CN1CC[C@]23CCCC[C@H]2[C@H]1Cc1ccc(O)cc13` [dextrorphan, (+)-3-hydroxy-N-methylmorphinan]: in the data set on rats [1], the “rats that died due to drug administration” value is “None”; the overall toxicity result is “nontoxic”; the grooming and weight result is “continued to appear well groomed and did not show weight loss”. Moreover, in the data set on Sprague-Dawley rats [2] (coadministration of dextrorphan with morphine), the “analgesic effect of the morphine on coadministration” value is “remains substantially unaffected”. In the data set on Sprague-Dawley rats [2] (dextrorphan 1.56, 3.13, 6.25, 12.5 mg/kg i.p. 30 min prior to each morphine 10 mg/kg s.c. twice daily, vs saline control, FIG. 1), the “prevention of the development of morphine tolerance (tail-flick latency)” value was “potently prevented the development of morphine tolerance”. For the same compound, in the data set with Sprague-Dawley rats [4] (dextrorphan 3.13 and 6.25 mg/kg, morphine 10 mg/kg twice daily for 9 days, vs MOR+SAL, FIG. 2), the “incidence of jumping after naloxone 2 mg/kg s.c.” value was “significantly reduced the incidence of jumping”.

With `CN1CC[C@]23c4c5ccc(O)c4O[C@H]2[C@@H](O)C=C[C@H]3[C@H]1C5.O=S(=O)(O)O` [morphine, morphine sulfate], the “response to morphine (tolerance), control group” value in the data set with rats [3] (once daily intrathecal morphine 10 μg + saline, Day 8, each tested time point) is “marked reduction in response to morphine”; with Sprague-Dawley rats [2] (morphine 10 mg/kg s.c. twice daily + saline, at 7 and 9 days), “marked reduction in response to morphine”. In the data set with rats [3] (once daily intrathecal morphine sulfate 10 μg and saline for 7 consecutive days), the “tolerance to the analgesic effect (tail-flick latencies vs baseline, day 1)” value was “developed tolerance to the analgesic effect or morphine”. Further, the “post-drug tail-flick latency scores” value in the data set with Sprague-Dawley rats [2] (measured 1 hour after drug administration, first 5 days of daily administration, morphine 10 mg/kg s.c. twice daily, baseline 4-5 seconds) was around 10 s.

As to ganglioside GM1, the “prevention of morphine tolerance (maximal possible effects, % MPE)” value with rats [3] (intrathecal ganglioside GM1 30 min before each once daily intrathecal morphine 10 μg, Day 8, 15-240 minutes after morphine, vs saline, FIG. 5) is “effectively prevented the development of morphine tolerance”. For the same compound, in the data set on rats [3] (intrathecal ganglioside GM1, Day 8), the “order of doses, maximal possible analgesia effects of morphine” value stood at 160 nmol>80=40 nmol. Moreover, in the data set on rats [1], the “rats that died due to drug administration” value is listed as “None”; the overall toxicity entry is “nontoxic”; the grooming and weight result is “continued to appear well groomed and did not show weight loss”. Further, the “inhibition of the development of morphine tolerance” value in the data set with Sprague-Dawley rats [2] (ganglioside GM1 60 mg/kg) is recorded as “inhibited the development of morphine tolerance to the degree equivalent to that induced by 0.3 mg/kg MK 801”. Also, the “tail flick latency versus saline-treated rats” value in the data set with Sprague-Dawley rats [2] (ganglioside GM1 10, 30, 60 mg/kg systemic, 1 hour before each morphine, days 5, 7, 9 and 10 of repeated morphine, FIG. 3) is “remained significantly longer than that of saline-treated rats”. Further, the “comparison of doses for prevention of morphine tolerance” value in the data set with Sprague-Dawley rats [2] (ganglioside GM1 systemic, 10, 30, 60 mg/kg, FIG. 3) is 30 and 60 mg/kg were more effective at days 9 and 10 than 10 mg/kg. Also, in the data set on Sprague-Dawley rats [4] (GM1 10, 30 and 60 mg/kg systemic, morphine 10 mg/kg twice daily for 9 days, vs MOR+SAL, FIG. 4), the “number of jumps after naloxone 2 mg/kg s.c.” value is reported as “effective”. For the same compound, in the data set on Sprague-Dawley rats [4] (GM1 systemic, doses 10, 30, 60 mg/kg), the “most effective dose tested against naloxone-produced jumping” value came to 60 mg/kg.
